Measurements published in PMC8706783 (Pharmaceutics, 2021).

How the values were obtained:
UGT1A8 = target: T1, UGT1A8 (Homo sapiens, UniProt Q9HAW9); assay: Reaction phenotyping, rUGT1A8; details: recombinant UGT1A8, pH 7.4
T1 sequence (Q9HAW9 26-530): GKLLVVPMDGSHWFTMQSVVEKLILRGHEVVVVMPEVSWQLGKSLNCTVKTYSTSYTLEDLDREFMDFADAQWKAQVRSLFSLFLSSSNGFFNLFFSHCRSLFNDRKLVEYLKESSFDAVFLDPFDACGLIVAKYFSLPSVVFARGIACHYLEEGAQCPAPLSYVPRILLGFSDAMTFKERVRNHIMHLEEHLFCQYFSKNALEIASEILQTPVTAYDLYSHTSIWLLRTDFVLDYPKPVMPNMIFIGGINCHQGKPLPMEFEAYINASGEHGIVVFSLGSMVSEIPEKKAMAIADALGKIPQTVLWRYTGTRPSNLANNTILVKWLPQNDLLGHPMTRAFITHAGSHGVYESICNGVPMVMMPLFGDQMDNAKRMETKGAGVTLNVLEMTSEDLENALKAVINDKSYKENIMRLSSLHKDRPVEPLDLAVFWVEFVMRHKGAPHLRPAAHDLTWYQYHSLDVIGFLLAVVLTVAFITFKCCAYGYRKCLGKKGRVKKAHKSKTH

UGT1A6 = target: T2, UGT1A6 (Homo sapiens, UniProt P19224); assay: Reaction phenotyping, rUGT1A6; details: recombinant UGT1A6, pH 7.4
T2 sequence (P19224 27-532): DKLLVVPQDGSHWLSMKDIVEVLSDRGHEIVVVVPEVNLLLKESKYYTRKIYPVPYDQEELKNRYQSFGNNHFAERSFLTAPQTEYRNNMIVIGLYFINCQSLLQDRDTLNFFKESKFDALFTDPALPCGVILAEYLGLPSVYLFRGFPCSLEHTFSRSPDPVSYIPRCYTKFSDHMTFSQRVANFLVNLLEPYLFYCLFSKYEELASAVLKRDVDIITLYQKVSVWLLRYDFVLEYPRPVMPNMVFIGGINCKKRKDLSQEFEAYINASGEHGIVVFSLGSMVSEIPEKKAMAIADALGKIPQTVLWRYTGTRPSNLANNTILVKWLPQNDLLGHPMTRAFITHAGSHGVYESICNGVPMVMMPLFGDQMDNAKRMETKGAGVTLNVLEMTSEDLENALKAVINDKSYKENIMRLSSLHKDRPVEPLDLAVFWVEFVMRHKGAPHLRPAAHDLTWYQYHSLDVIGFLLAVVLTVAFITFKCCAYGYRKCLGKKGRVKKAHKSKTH

UGT1A7 = target: T3, UGT1A7 (Homo sapiens, UniProt Q9HAW7); assay: Reaction phenotyping, rUGT1A7; details: recombinant UGT1A7, pH 7.4
T3 sequence (Q9HAW7 26-530): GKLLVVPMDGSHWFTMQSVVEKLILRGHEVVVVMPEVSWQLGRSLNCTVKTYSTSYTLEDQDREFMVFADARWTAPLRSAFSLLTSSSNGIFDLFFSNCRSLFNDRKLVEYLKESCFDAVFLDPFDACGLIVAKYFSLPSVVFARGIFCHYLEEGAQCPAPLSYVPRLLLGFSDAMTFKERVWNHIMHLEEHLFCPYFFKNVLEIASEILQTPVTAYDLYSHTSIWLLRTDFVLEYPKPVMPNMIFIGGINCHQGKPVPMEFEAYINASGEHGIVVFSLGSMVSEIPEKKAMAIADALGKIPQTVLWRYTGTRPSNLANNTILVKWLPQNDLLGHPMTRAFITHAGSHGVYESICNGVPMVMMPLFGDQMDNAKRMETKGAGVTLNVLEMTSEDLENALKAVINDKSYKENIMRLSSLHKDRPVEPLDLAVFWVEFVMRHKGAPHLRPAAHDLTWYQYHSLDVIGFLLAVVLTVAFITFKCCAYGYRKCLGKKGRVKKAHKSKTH

[1] = Reaction phenotyping, HLM with UDPGA; details: human, human liver microsomes, pH 7.4
rCYP1B1 = rCYP1B1 (Homo sapiens, UniProt Q16678); details: recombinant enzyme, 1 h
UGT1A9 = target: T4, UGT1A9 (Homo sapiens, UniProt O60656); assay: Reaction phenotyping, rUGT1A9; details: recombinant UGT1A9, pH 7.4
T4 sequence (O60656 26-530): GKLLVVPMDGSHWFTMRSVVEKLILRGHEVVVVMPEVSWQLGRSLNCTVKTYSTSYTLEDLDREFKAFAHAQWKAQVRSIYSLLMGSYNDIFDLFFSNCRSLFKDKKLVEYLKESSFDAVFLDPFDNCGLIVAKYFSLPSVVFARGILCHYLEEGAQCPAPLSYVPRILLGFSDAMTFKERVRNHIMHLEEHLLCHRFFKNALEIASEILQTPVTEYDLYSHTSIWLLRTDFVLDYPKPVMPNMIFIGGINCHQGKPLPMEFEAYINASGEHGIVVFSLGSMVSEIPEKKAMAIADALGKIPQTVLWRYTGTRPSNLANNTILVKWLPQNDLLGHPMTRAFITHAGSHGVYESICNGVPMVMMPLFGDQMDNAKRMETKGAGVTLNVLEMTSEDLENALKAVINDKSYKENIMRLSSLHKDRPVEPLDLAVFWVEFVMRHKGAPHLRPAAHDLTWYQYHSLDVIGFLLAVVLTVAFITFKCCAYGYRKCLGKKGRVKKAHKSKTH

CYP1A2 = target: T5, CYP1A2 (Homo sapiens, UniProt P05177); assay: Reaction phenotyping, rCYP1A2; details: recombinant CYP1A2, pH 7.4
T5 sequence (P05177 1-516): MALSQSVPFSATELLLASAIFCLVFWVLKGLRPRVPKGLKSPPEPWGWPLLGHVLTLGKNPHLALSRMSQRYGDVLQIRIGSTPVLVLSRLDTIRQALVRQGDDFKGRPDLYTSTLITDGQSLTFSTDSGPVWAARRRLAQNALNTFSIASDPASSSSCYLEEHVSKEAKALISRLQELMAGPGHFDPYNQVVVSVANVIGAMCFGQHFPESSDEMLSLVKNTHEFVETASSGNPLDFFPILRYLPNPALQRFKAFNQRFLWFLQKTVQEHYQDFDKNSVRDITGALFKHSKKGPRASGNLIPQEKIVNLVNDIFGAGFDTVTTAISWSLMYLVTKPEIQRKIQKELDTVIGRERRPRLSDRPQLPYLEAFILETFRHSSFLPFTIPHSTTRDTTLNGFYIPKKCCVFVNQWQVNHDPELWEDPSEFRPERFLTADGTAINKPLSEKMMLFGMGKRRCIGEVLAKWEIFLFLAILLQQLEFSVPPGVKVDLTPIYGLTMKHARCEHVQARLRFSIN

CYP1A1 = target: T6, CYP1A1 (Homo sapiens, UniProt P04798); assay: Reaction phenotyping, rCYP1A1; details: recombinant CYP1A1, pH 7.4
T6 sequence (P04798 1-512): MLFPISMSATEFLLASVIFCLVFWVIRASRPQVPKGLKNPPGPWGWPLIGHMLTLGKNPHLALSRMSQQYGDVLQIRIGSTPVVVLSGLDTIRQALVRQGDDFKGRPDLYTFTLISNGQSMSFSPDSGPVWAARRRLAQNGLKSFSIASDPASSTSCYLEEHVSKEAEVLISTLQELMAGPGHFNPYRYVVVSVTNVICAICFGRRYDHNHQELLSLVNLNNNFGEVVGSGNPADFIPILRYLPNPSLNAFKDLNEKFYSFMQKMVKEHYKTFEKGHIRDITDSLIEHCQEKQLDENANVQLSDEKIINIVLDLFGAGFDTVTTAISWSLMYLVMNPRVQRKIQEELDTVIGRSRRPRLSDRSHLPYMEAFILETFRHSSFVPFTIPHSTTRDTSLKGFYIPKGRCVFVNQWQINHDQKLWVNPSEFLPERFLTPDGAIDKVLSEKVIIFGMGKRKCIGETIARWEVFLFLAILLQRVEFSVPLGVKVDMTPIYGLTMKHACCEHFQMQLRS

UGT1A4 = target: T7, UGT1A4 (Homo sapiens, UniProt P22310); assay: Reaction phenotyping, rUGT1A4; details: recombinant UGT1A4, pH 7.4
T7 sequence (P22310 29-534): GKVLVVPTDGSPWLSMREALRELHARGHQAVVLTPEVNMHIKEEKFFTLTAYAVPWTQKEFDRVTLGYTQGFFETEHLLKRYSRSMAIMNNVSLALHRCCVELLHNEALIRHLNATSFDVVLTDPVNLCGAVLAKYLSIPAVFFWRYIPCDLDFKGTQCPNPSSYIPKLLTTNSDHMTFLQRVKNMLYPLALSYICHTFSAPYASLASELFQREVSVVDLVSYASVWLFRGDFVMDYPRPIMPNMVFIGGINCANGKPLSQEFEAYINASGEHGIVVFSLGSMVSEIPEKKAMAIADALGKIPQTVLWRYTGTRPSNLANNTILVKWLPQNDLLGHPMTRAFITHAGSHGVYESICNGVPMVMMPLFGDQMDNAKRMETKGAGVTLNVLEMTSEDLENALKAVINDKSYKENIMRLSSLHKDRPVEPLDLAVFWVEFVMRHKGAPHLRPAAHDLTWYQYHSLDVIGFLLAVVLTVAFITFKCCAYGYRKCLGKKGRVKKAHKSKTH

UGT2B7 = target: T8, UGT2B7 (Homo sapiens, UniProt P16662); assay: Reaction phenotyping, rUGT2B7; details: recombinant UGT2B7, pH 7.4
T8 sequence (P16662 24-529): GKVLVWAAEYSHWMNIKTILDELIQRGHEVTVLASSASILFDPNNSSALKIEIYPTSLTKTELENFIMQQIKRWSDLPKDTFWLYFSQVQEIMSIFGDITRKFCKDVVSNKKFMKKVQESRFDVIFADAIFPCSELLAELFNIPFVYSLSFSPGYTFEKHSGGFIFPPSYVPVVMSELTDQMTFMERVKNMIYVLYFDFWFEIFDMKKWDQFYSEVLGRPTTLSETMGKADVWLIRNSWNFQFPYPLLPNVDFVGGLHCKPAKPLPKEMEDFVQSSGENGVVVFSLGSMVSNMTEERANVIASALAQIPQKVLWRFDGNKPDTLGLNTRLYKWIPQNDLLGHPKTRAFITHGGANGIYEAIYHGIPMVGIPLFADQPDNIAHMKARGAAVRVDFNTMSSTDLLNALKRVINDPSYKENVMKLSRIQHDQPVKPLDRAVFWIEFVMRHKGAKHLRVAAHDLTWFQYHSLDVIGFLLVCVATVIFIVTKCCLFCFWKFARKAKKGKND

Sequence of rCYP1B1 (Q16678 whole entry): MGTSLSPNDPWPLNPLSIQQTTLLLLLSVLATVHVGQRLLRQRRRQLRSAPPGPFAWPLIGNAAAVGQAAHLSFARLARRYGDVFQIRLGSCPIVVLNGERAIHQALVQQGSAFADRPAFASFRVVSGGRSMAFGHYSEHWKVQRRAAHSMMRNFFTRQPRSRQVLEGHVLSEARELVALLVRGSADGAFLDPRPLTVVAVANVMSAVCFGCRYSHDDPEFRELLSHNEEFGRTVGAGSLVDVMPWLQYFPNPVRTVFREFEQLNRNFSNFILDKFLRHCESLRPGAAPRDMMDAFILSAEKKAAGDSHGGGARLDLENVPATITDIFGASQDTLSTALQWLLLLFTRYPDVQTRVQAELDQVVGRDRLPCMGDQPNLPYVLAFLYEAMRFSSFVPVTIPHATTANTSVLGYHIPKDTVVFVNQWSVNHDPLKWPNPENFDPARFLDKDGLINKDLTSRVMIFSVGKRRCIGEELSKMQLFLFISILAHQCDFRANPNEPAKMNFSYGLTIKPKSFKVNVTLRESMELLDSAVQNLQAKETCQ

`Cc1cc(=O)oc2cc(O)ccc12` [4-methylumbelliferone] gave a remaining at 1 h, 2 µM (UGT1A8) of 49.9%, a remaining at 1 h, 2 µM (UGT1A6) of 5.26% and a remaining at 1 h, 10 µM (UGT1A7) of 70.9%. It also gave a remaining at 1 h, 2 µM [1] of 0.82%.

For `CCOc1ccc2nc3ccc(=O)cc-3oc2c1` [7-ethoxyresorufin], the “Known Substrate (% Remaining at 60 min)” value (rCYP1B1) was 7-ethoxyresorufin (35.11) %.

With `COc1c(C)c2c(c(O)c1C/C=C(\C)CCC(=O)O)C(=O)OC2` [Mycophenolic acid] the remaining at 1 h, 0.2 µM (UGT1A9) was 0%.

Compound `CCOc1ccc(NC(C)=O)cc1` [Phenacetin] has a remaining at 1 h, 10 µM (CYP1A2) of 65.8% and a remaining at 1 h, 10 µM (CYP1A1) of 41%.

`CN1CCN(CCCN2c3ccccc3Sc3ccc(C(F)(F)F)cc32)CC1` [Trifluoperazine] showed a remaining at 1 h, 0.5 µM (UGT1A4) of 73.1%.

For `Cc1cn([C@H]2C[C@H](N=[N+]=[N-])[C@@H](CO)O2)c(=O)[nH]c1=O` [Zidovudine], the remaining at 1 h, 10 µM (UGT2B7) was 74.4%.
